Key:
[1] = system: CF nasal epithelial cells; assay: Intracellular calcium [Ca^2+ ]i in single CF nasal epithelial cells (Fura-2); assay type: cell-based, human; conditions: FIG. 6
Protocol: Freshly excised human nasal epithelium from normal or cystic fibrosis subjects was grown in primary culture in F-12, hormone-supplemented medium in accordance with known procedures. See R. Wu et al., Am. Rev. Respir. Dis. […] For [Ca^2+ ]i measurements, cultures were grown on non-fluorescent vitrogen substrates on glass coverslips. Cultures for electrophysiologic studies were grown to confluence on permeable collagen matrix supports (CMS), allowing addition of agonists to the basolateral or apical surface of the epithelial sheet.
Primary human nasal epithelial cells grown to confluence on vitrogen coated coverslips were loaded with a final concentration of 3 μM Fura-2/AM at 37° C. for 30 minutes. The cells were then washed in NaCl Ringer and mounted in a chamber for measurements of fluorescence. To reduce the rate of leakage of Fura-2 from the cell into the extracellular space and avoid time-dependent compartmentalization of the probe, all measurements of [Ca^2+ ]i were performed at 25° C.
Measurements of [Ca^2+ ]i in single human nasal epithelial cells were obtained with a modular microspectrofluorimeter (SPEX Industries, Inc., Edison, N.J.) attached to a Zeiss Axiovert IM 35 microscope. […] The fluorescent signal from a single cell was measured with a photometer equipped with a pinhole (spot diameter of 3-5 μm) that excluded signals from adjacent cells. […]

[2] = system: CF human nasal epithelium; assay: Bioelectric studies (Isc) of cystic fibrosis (CF) human nasal epithelium; assay type: cell-based; conditions: for Isc response tracing: 10^-4 M, amiloride-pretreated (10^-4 M)
Protocol: (§1) Freshly excised human nasal epithelium from normal or cystic fibrosis subjects was grown in primary culture in F-12, hormone-supplemented medium in accordance with known procedures. See R. Wu et al., Am. Rev. Respir. Dis. 132, 311-320 (1985). For [Ca^2+ ]i measurements, cultures were grown on non-fluorescent vitrogen substrates on glass coverslips. Cultures for electrophysiologic studies were grown to confluence on permeable collagen matrix supports (CMS), allowing addition of agonists to the basolateral or apical surface of the epithelial sheet.
(§2) Confluent monolayers of primary human nasal epithelium were mounted in modified Ussing chambers in accordance with known procedures. See, e.g., R. Boucher et al., J. Physiol. (Lond.) 405, 77-103 (1988); M. Knowles et al., Science 221, 1067-1070 (1983). The studies described below were performed under short circuit current conditions at 37° C., and in some studies, amiloride was added to the apical bath (10^-4 M) to block transepithelial sodium transport. Changes in transepithelial potential difference (Vt), resistance (Rt) and short circuit current (Isc) were measured in response to addition of various nucleotides. Each cultured preparation was exposed to only one concentration of an agonist on either the basolateral or apical surface to avoid the tachyphylaxis observed in preliminary cumulative dose response studies. To construct concentration-effect relationships of responses to nucleotides, it was assumed that the same maximum response to an agonist could be induced from each tissue culture preparation from the same individual.
(§3) The purinergic receptor subtype(s) linked to regulation of ion transport of human nasal epithelium were characterized by obtaining concentration-effect relationships for a variety of purine and pyrimidine agonists in preparations derived from normal and CF patients. We characterized receptor subtype(s) on the […] surface by measuring nucleotide effect on basal Na^+ transport rates. Because therapies designed to induce Cl^- secretion might best be delivered by the aerosol route, receptor subtype characterization on the apical barrier was performed in the presence of amiloride. The effect of extracellular nucleotides on ion transport is reported as the percent change in Isc from control values when applied to the basolateral or apical surface of the culture. Basal pre-agonist currents were similar for tissues in each concentration group.
Availability of Cystic Fibrosis (CF) tissues is limited, and our investigation of effects of nucleotides was restricted to examining regulation of Cl^- secretion rates and [Ca^2+ ]i levels by ATP and UTP.

[3] = system: normal human nasal epithelium; assay: Bioelectric studies (short circuit current, Isc) of normal human nasal epithelium in Ussing chambers; assay type: cell-based
Protocol: as §1, §2
The effects of extracellular ATP on normal human nasal epithelium were investigated employing bioelectric measurements of ion transport activity when the nucleotide was applied to either the apical or basolateral membrane. […] In general, the change in Isc induced by application of ATP to the apical or the basolateral side returned to baseline or below within 5 minutes after addition of agonist. […] Apical pretreatment with amiloride (10^-4 M) removes active Na^+ absorption as a component of the Isc so that the residual Isc reflects a Cl^- secretory current (R. Boucher et al., J. Clin. Invest. 78, 1245-1252 (1986); N. Willumsen et al., Am. J. Physiol. 256, C1033-C1044 (1989)).
A concentration-effect relationship was found when ATP was applied to normal human nasal epithelium under basal conditions (data not shown). Comparisons were made between responses of tissues from different donors based on the peak change in Isc following ATP application. The curve describes the mean peak change in Isc in response to log increasing concentrations of ATP applied to the apical or basolateral surface.
Concentration-effect relationships were also found for ATP applied to the apical or basolateral membrane of amiloride-pretreated tissues (data not shown). Again, the nucleotide's effect on ion transport was examined as the mean peak change in Isc after ATP application.
as §3

[4] = Homo sapiens, read-out: maximum mean % change in Isc

Nc1ncnc2c1ncn2[C@@H]1O[C@H](COP(=O)(O)OP(=O)(O)OP(=O)(O)O)[C@@H](O)[C@H]1O [ATP, adenosine triphosphate]
[Ca^2+ ]i response in CF tissues [1]: Increases in [Ca^2+ ]i
Isc response tracing ([2]; apical surface, FIG. 4A): Cl^- secretion in response to ATP
Isc response tracing ([2]; apical surface, FIG. 4B): opposite polarity
Emax [2, 4]: 14 ± 3%
change in Isc over basal levels ([2]; apical surface, amiloride-pretreated CF tissues): Most tissues exhibited an increase in Isc over basal levels
pattern of Isc response ([2]; apical, amiloride-pretreated CF tissues): two distinct patterns of response
CF tissues responding with a change to opposite polarity of Isc ([2]; apical, amiloride-pretreated CF tissues, FIG. 4B): approximately 30%
Cl^- secretion (amiloride-resistant Isc) ([2]; basolateral addition, CF tissues): Only small changes in Cl^- secretion
increase in Isc at 10^-3 M ([3]; 10^-3 M, basolateral membrane (not seen with apical application), basal conditions): A large increase in Isc
change in Isc on application to either surface ([3]; ATP, apical or basolateral surface, no amiloride): rapidly stimulated an increase in Isc
time for change in Isc to return to baseline or below ([3]; ATP, apical or basolateral, basal conditions): ≤ 5 min
Emax [3, 4]: 51 ± 8%
Cl^- secretory response ([3]; amiloride-pretreated tissues): A typical Cl^- secretory response
change in ion transport, amiloride-pretreated versus basal state ([3]; amiloride-pretreated tissues): routinely smaller than that observed in tissues in the basal state
character of log concentration-effect curves ([3]; amiloride-treated tissues, apical or basolateral): sigmoidal in character
duration of prolonged increase in Isc above baseline ([3]; apical surface following amiloride pretreatment, most tissues): > 10 min
rank order of potency for Cl^- secretion ([3]; apical surface, amiloride-pretreated, FIG. 2): ATP≥UTP>ATPγS>ADP>2MeSATP>ADPβS
effectiveness, apical versus basolateral ([3]; basal conditions, 10^-7 to 10^-4 M): approximately equal
time for ATP induced increase in Isc to return to baseline ([3]; basolateral addition, amiloride-pretreated): ≤ 5 min
character of concentration-effect curve including 10^-3 M ([3]; basolateral surface, 10^-3 M drug considered): biphasic in character
character of log concentration-effect curve ([3]; basolateral surface, 10^-7 to 10^-4 M): sigmoidal character
rank order of potency for increase in Isc ([3]; basolateral surface, FIG. 1): 2MeSATP>UTP≥ATP>ATPγS>ADP>ADPβS
oscillations in Isc ([3]; following ATP): frequently observed
